Assays:
Assay type in all cases: cell-based
[1] = tested on: A. baumannii; experiment: Kirby-Bauer disk diffusion susceptibility test; conditions: 300 μg/disc
Description: (§1) Bacterial strains, from clinical origin, were supplied by the National Center for Microbiology, Institute of Health Carlos III (Majadahonda, Madrid). They are detailed in Table 1.
(§2) Bacterial cells suspension in sterile saline was prepared from a culture of 24-72 h, depending on bacterial species, in Mueller-Hinton Agar with 5% sheep blood. Each suspension was adjusted to a fixed size inoculum of 1-5×10^8 CFU/ml with a spectrophotometer (Ferraro, MJ National Committee for Clinical Laboratory Standards. 2000).
(§3) Kirby-Bauer disk diffusion susceptibility test protocol was utilized to determine the sensitivity or resistance of pathogenic bacteria against the compounds and others antibiotics. The absence of growth around the disks is an indirect measure of the ability of this compound to inhibit an organism (Kirby, W., et al., Antibiotics Annu. 1956-1957:892). After 18 to 72 hours of incubation at 37° C., with or without CO2, under aerobic or anaerobic conditions, depending on the bacterial species, halo of growth inhibition were obtained and evaluated.
(§4) Interpretation of susceptibility and resistance was based on the presence or absence of a zone of inhibition surrounding the disk. Kirby-Bauer disk diffusion susceptibility test is a common method which uses antibiotic-impregnated wafers to test whether bacteria are affected by antibiotics. The size of the zone of inhibition depends on how effective the antibiotic is at stopping the growth of the bacterium. A stronger antibiotic will create a larger zone, because a lower concentration of the antibiotic is enough to stop growth.
(§5) All compounds were tested at 300 μg/disc.

[2] = tested on: K. pneumoniae; experiment: Kirby-Bauer disk diffusion susceptibility test; conditions: 300 μg/disc
Description: as §1, §2, §3, §4, §5

[3] = tested on: N. carnea; experiment: Kirby-Bauer disk diffusion susceptibility test; conditions: 300 μg/disc
Description: as §1, §2, §3, §4, §5

[4] = tested on: N. cyriacigeorgica; experiment: Kirby-Bauer disk diffusion susceptibility test; conditions: 300 μg/disc
Description: as §1, §2, §3, §4, §5

[5] = tested on: T. pulmonis; experiment: Kirby-Bauer disk diffusion susceptibility test; conditions: 300 μg/disc
Description: as §1, §2, §3, §4, §5

[6] = tested on: A. flavus; experiment: Antifungal disk diffusion susceptibility test (CLSI M44); conditions: Aspergillus flavus, A. flavus; for zone of inhibition at 150 µg/disc: 150 μg/disc; for zone of inhibition at 500 µg/disc: 500 μg/disc
Description: (§6) Filamentous fungi and yeasts strains, from clinical origin, were supplied by Microbiology Service from The Princess Hospital, Madrid. They are detailed in Table IX.
(§7) Filamentous fungi and yeast cells suspensions in distilled water was prepared from a culture of 24-48 h, depending on species, in Sabouraud agar. Each suspension was adjusted to a fixed size inoculum of 1-5×10^8 CFU/ml with a spectrophotometer (Ferraro, MJ National Committee for Clinical Laboratory Standards. 2000).
(§8) Antifungal susceptibility tests were developed following the standardized methodology detailed in document CLSI: M44-4: Method for Antifungal Disk diffusion susceptibility testing of yeasts consisting of disk diffusion on agar Muller-Hinton (supplemented with 2% glucose).

[7] = tested on: A. fumigatus; experiment: as above; conditions: Aspergillus fumigatus, A. fumigatus; for zone of inhibition at 150 µg/disc: 150 μg/disc; for zone of inhibition at 500 µg/disc: 500 μg/disc
Description: as §6, §7, §8

[8] = tested on: A. niger; experiment: as above; conditions: Aspergillus niger, A. niger; for zone of inhibition at 150 µg/disc: 150 μg/disc; for zone of inhibition at 500 µg/disc: 500 μg/disc
Description: as §6, §7, §8

[9] = tested on: A. terreus; experiment: as above; conditions: Aspergillus terreus, A. terreus; for zone of inhibition at 150 µg/disc: 150 μg/disc; for zone of inhibition at 500 µg/disc: 500 μg/disc
Description: as §6, §7, §8

[10] = tested on: C. albicans; experiment: as above; conditions: Candida albicans, C. albicans; for zone of inhibition at 150 µg/disc: 150 μg/disc; for zone of inhibition at 500 µg/disc: 500 μg/disc
Description: as §6, §7, §8

[11] = tested on: C. guillermondii; experiment: as above; conditions: C. guillermondii; for zone of inhibition at 150 µg/disc: 150 μg/disc; for zone of inhibition at 500 µg/disc: 500 μg/disc
Description: as §6, §7, §8

[12] = tested on: C. lusitaniae; experiment: as above; conditions: Clavispora lusitaniae, C. lusitaniae; for zone of inhibition at 150 µg/disc: 150 μg/disc; for zone of inhibition at 500 µg/disc: 500 μg/disc
Description: as §6, §7, §8

[13] = tested on: C. parapsilosis; experiment: as above; conditions: Lodderomyces parapsilosis, C. parapsilosis; for zone of inhibition at 150 µg/disc: 150 μg/disc; for zone of inhibition at 500 µg/disc: 500 μg/disc
Description: as §6, §7, §8

[14] = tested on: C. tropicalis; experiment: as above; conditions: Candida tropicalis, C. tropicalis; for zone of inhibition at 150 µg/disc: 150 μg/disc; for zone of inhibition at 500 µg/disc: 500 μg/disc
Description: as §6, §7, §8

[15] = tested on: S. cerevisiae; experiment: as above; conditions: Saccharomyces cerevisiae, S. cerevisiae; for zone of inhibition at 150 µg/disc: 150 μg/disc; for zone of inhibition at 500 µg/disc: 500 μg/disc
Description: as §6, §7, §8

Compound | zone of inhibition at 150 µg/disc [6] | zone of inhibition at 500 µg/disc [6] | zone of inhibition at 150 µg/disc [7] | zone of inhibition at 500 µg/disc [7] | zone of inhibition at 150 µg/disc [8] | zone of inhibition at 500 µg/disc [8] | zone of inhibition at 150 µg/disc [9] | zone of inhibition at 500 µg/disc [9] | zone of inhibition at 150 µg/disc [10] | zone of inhibition at 500 µg/disc [10] | zone of inhibition at 150 µg/disc [11] | zone of inhibition at 500 µg/disc [11] | zone of inhibition at 150 µg/disc [12] | zone of inhibition at 500 µg/disc [12] | zone of inhibition at 150 µg/disc [13] | zone of inhibition at 500 µg/disc [13] | zone of inhibition at 150 µg/disc [14] | zone of inhibition at 500 µg/disc [14] | zone of inhibition at 150 µg/disc [15] | zone of inhibition at 500 µg/disc [15] | other results
NNC(=O)C(=O)NNc1ccc(Br)cc1 [MSG-216] | < 10 mm | < 10 mm | < 10 mm | 10 mm | 10 mm | 36 mm | < 10 mm | 10 mm | 24 mm | > 40 mm | 13 mm | > 40 mm | 36 mm | > 40 mm | 11 mm | > 40 mm | 26 mm | > 40 mm | 19 mm | 35 mm | Activity detected (mm) [1]: 12 mm; Activity detected (mm) [2]: 11 mm; Activity detected (mm) [3]: 14 mm; Activity detected (mm) [4]: 17 mm; Activity detected (mm) [5]: 25 mm
NNC(=O)CC(=O)NNc1ccccc1 [MSG-187] | < 10 mm | 36 mm | < 10 mm | 32 mm | < 10 mm | 40 mm | < 10 mm | < 10 mm | < 10 mm | 22 mm | < 10 mm | 22 mm | < 10 mm | 20 mm | < 10 mm | 17 mm | < 10 mm | 18 mm | < 10 mm | < 10 mm | 
COc1ccc(NNC(=O)C(=O)NN)cc1 [MSG-210] | 10 mm | 9 mm | 10 mm | 16 mm | 27 mm | 40 mm | 19 mm | 22 mm | 32 mm | > 40 mm | 32 mm | 35 mm | 39 mm | > 40 mm | 28 mm | 32 mm | 34 mm | 36 mm | 28 mm | 30 mm | Activity detected (mm) [1]: 18 mm; Activity detected (mm) [3]: 11 mm; Activity detected (mm) [4]: 15 mm; Activity detected (mm) [5]: 20 mm

Reference: patent US11584710B2, “Compounds for treating infections” (HORITZONTS TECNOLOGICS HUNGARY KORLÁTOLT FELELOSSÉGU …, priority 2017, dated 2023)
